Measured values taken from PubChem BioAssay AID1259348 (Broad Institute, 2017).
Activity calls are given as the source filed them.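 The calls were made as follows: active = any compound with an IC50 of 100 nM or lower; inactive = the rest.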

Target: Insulin-degrading enzyme (Homo sapiens) (UniProt P14735)
Assay: inhibitors of IDE decapeptide proteolysis, dose response, counter-screen for IDE exo-site inhibitor project, biochemical, kinetic mode (AID 1259348);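 as to z-score: purified IDE bound to fluorescein-labelled 6b probe FL-6b at the exo-site; probe displacement lowers polarization so hits show a drop in FP signal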
Conditions: purified human IDE, fluorogenic decapeptide proteolysis; for z-score: measured here: primary FP probe displacement screen, stronger effect = lower value

Chain of Insulin-degrading enzyme (Homo sapiens) (P14735 42-1019 limits assumed): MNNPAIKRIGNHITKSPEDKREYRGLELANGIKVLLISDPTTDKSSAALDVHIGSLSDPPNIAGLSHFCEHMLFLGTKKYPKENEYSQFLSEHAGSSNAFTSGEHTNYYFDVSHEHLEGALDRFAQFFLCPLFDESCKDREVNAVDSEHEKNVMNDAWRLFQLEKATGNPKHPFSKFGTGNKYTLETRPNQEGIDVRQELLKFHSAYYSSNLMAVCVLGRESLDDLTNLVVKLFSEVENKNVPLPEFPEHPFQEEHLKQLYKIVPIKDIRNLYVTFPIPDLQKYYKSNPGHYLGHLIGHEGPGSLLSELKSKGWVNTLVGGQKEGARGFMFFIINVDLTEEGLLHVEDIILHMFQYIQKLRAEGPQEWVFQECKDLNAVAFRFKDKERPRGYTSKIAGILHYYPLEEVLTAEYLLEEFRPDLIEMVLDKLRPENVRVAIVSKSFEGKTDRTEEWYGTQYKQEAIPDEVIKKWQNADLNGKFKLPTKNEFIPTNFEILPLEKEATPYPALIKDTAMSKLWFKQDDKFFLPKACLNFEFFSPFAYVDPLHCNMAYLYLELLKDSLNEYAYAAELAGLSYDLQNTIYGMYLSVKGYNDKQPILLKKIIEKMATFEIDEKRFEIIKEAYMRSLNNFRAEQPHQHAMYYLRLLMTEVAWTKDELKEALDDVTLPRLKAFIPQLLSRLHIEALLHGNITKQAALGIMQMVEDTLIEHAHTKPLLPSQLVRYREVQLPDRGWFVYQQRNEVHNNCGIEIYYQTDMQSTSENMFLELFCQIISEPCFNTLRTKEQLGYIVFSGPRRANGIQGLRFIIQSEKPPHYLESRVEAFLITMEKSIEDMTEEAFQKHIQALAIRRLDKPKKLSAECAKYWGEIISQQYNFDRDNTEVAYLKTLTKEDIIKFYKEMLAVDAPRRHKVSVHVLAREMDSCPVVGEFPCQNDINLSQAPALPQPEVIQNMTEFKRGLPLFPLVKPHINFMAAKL

Cc1ccccc1-c1ccc([C@@H]2[C@@H](CO)N3CCCCN(C(=O)CN4CCOCC4)C[C@@H]23)cc1
IC50: 6.4 µM | z-score: -8

Cc1cccc(-c2ccc([C@@H]3[C@H](CO)N4CCCCN(S(=O)(=O)c5cn(C)cn5)C[C@@H]34)cc2)c1
IC50: 2.1 µM | z-score: -19.5

CCCNC(=O)N1CC(=O)N2[C@@H](CO)[C@H](c3ccc(-c4cccc(C)c4)cc3)[C@@H]2C1
IC50: 2.4 µM | z-score: -15.8

Cc1ccccc1-c1ccc([C@@H]2[C@@H](CO)N3CCCCN(C(=O)c4cccnc4)C[C@@H]23)cc1
IC50: 13 µM | z-score: -7.98

Cc1ccccc1-c1ccc([C@H]2[C@H]3CN(C(=O)NC4CCCC4)CC(=O)N3[C@H]2CO)cc1
IC50: 6 µM | z-score: -12.4

Cc1ccccc1-c1ccc([C@H]2[C@@H](CO)N3CCCCN(CC4CC4)C[C@@H]23)cc1
IC50: 45 µM | z-score: -3.48

Cc1cccc(-c2ccc([C@@H]3[C@@H](CO)N4CCCCN(C(=O)c5ccncc5)C[C@@H]34)cc2)c1
IC50: 16.5 µM | z-score: -3.14

COc1ccccc1C#Cc1ccc([C@H]2[C@H]3CN(C(=O)C4CCC4)CCCCN3[C@H]2CO)cc1
IC50: > 100 µM (inactive) | z-score: -17.5

Cc1cccc(-c2ccc([C@@H]3[C@H]4CN(C(=O)c5cccnc5)CCCCN4[C@H]3CO)cc2)c1
IC50: 6.6 µM | z-score: -15.2

COc1ccccc1-c1ccc(C2[C@@H]3CN(C(=O)c4cccnc4)C[C@H]2N3)cc1 (stereo partly specified)
IC50: 7.1 µM | z-score: -13.8

COc1ccccc1-c1ccc([C@H]2[C@@H](CO)N(C(=O)NC(C)C)[C@H]2C#N)cc1
IC50: 20 µM | z-score: -16.3

COc1ccccc1-c1ccc([C@H]2[C@H](C#N)N[C@@H]2CO)cc1
IC50: 6.3 µM | z-score: -12

Cc1ccccc1-c1ccc([C@@H]2[C@H]3CN(S(=O)(=O)c4cn(C)cn4)CCCCN3[C@H]2CO)cc1
IC50: 1.7 µM | z-score: -18.5

Cc1ccccc1-c1ccc([C@@H]2[C@H](CO)N3CCCCN(C(=O)NC4CCCC4)C[C@@H]23)cc1
IC50: 1.55 µM | z-score: -19

Cc1ccccc1-c1ccc([C@H]2[C@@H](CO)N3CCCCN(C(=O)c4cccnc4)C[C@@H]23)cc1
IC50: 12.5 µM | z-score: -4.79

Cc1ccccc1-c1ccc(C2[C@@H]3CN(Cc4cncnc4)C[C@H]2N3)cc1 (stereo partly specified)
IC50: 6.7 µM | z-score: -2.59

Cc1ccccc1-c1ccc([C@@H]2[C@H]3CN(C(=O)c4cccnc4)CC(=O)N3[C@H]2CO)cc1
IC50: 2.6 µM | z-score: -19.7

Cc1ccccc1-c1ccc(C2[C@@H]3CN(C(=O)Cc4ccncc4)C[C@H]2N3)cc1 (stereo partly specified)
IC50: 2.2 µM | z-score: -9.03

O=C(NC1CCCC1)N1CCCCN2[C@@H](CO)[C@H](c3ccc(/C=C/c4ccccc4)cc3)[C@@H]2C1
IC50: 0.88 µM | z-score: -14.8

COc1cccc(-c2ccc([C@@H]3[C@@H](CO)N4CCCCN(C(=O)Cc5ccncc5)C[C@@H]34)cc2)c1
IC50: 14.7 µM | z-score: -2.33

Cc1ccccc1-c1ccc([C@H]2[C@@H](CO)N3CCCCN(S(=O)(=O)c4ccc(F)cc4)C[C@@H]23)cc1
IC50: 85 µM | z-score: 3.66

CO[C@H]1CN(C)C(=O)c2cc(NC(=O)c3ccc(Oc4ccccc4)cc3)ccc2OC[C@H](C)NC[C@H]1C
IC50: 2.8 µM | z-score: -14.2

Cc1ccccc1-c1ccc([C@H]2[C@@H](CO)N3CCCCN(Cc4cccnc4)C[C@H]23)cc1
IC50: 4.8 µM | z-score: -11.4

Cc1ccccc1-c1ccc([C@@H]2[C@H](CO)N3CCCCN(C(=O)Cc4ccccn4)C[C@@H]23)cc1
IC50: 4.9 µM | z-score: -15.5

COc1cccc(C#Cc2ccc([C@@H]3[C@H](CO)N4C(=O)CN(C(=O)Cc5cccnc5)C[C@@H]34)cc2)c1
IC50: 6.2 µM | z-score: -4.12

O=C(c1ccccn1)N1CC(=O)N2[C@@H](CO)[C@@H](c3ccc(C#Cc4ccccc4)cc3)[C@@H]2C1
IC50: 5.2 µM | z-score: -19.9

COc1ccc(NC(=O)N2CCCCN3[C@H](CO)[C@H](c4ccc(-c5ccccc5C)cc4)[C@@H]3C2)cc1
IC50: 3.4 µM | z-score: -0.82

Cc1ccccc1-c1ccc([C@H]2[C@@H](CO)N3C(=O)CN(C(=O)Cc4ccccn4)C[C@@H]23)cc1
IC50: 3.2 µM | z-score: -17.3

Cc1ccccc1-c1ccc([C@@H]2[C@@H](CO)N3C(=O)CN(C(=O)Cc4ccccn4)C[C@@H]23)cc1
IC50: 2.7 µM | z-score: -19.9

Cc1ccccc1-c1ccc([C@@H]2[C@@H](CO)N3C(=O)CN(S(C)(=O)=O)C[C@@H]23)cc1
IC50: 1.8 µM | z-score: -12.7

O=C(c1ccncc1)N1C[C@@H]2N[C@H](C1)C2c1ccc(/C=C/c2ccccc2)cc1 (stereo partly specified)
IC50: 8.8 µM | z-score: -13.8

Cc1cccc(-c2ccc([C@@H]3[C@@H](CO)N4CCCCN(S(=O)(=O)c5cccc(C)c5)C[C@@H]34)cc2)c1
IC50: 1 µM | z-score: -9.77

Cc1ccccc1-c1ccc(C2[C@@H]3CN(C(=O)C4CCOCC4)C[C@H]2N3)cc1 (stereo partly specified)
IC50: 2.2 µM | z-score: -7.71

Cc1ccccc1-c1ccc([C@H]2[C@@H](CO)N3CCCCN(C(=O)Nc4ccc(F)cc4)C[C@@H]23)cc1
IC50: 3 µM | z-score: -1.63

Cc1ccccc1-c1ccc([C@H]2[C@H](CO)N3C(=O)CN(C(=O)c4ccncc4)C[C@@H]23)cc1
IC50: 4.5 µM | z-score: -7.39

Cc1cccc(-c2ccc([C@@H]3[C@@H](CO)N4CCCCN(C(=O)NC(C)C)C[C@@H]34)cc2)c1
IC50: 6.2 µM | z-score: -5.51

Cc1cccc(-c2ccc([C@@H]3[C@@H](CO)N4CCCCN(S(=O)(=O)c5ccccc5C)C[C@@H]34)cc2)c1
IC50: 0.1 µM | z-score: -20.3

OC[C@H]1[C@@H](c2ccc(C#Cc3ccccc3)cc2)[C@@H]2CN(Cc3cncnc3)CCCCN12
IC50: 4.3 µM | z-score: -16.2

CCC(=O)N1[C@H](CO)[C@H](c2ccc(-c3ccccc3OC)cc2)[C@H]1CNC(C)=O
IC50: 10.7 µM | z-score: -8.24

Cc1cccc(-c2ccc([C@@H]3[C@H](CO)N4CCCCN(S(=O)(=O)c5ccccc5F)C[C@@H]34)cc2)c1
IC50: 0.55 µM | z-score: -22.1

Cc1cccc(-c2ccc([C@@H]3[C@@H](CO)N4CCCCN(S(=O)(=O)c5cn(C)cn5)C[C@@H]34)cc2)c1
IC50: 0.9 µM | z-score: -17.5

Cc1cccc(-c2ccc([C@H]3[C@@H](CO)N4CCCCN(C(=O)c5ccncc5)C[C@H]34)cc2)c1
IC50: 3 µM | z-score: -18.3

Cc1ccccc1-c1ccc(C2[C@@H]3CN(S(=O)(=O)c4cn(C)cn4)C[C@H]2N3)cc1 (stereo partly specified)
IC50: 3.9 µM | z-score: -16.6

COc1ccccc1-c1ccc([C@H]2[C@@H](CO)N3CCCCN(C(=O)c4cccnc4)C[C@H]23)cc1
IC50: 13.2 µM | z-score: -12.8

Cc1ccccc1-c1ccc([C@H]2[C@@H](CO)N3CCCCN(C(=O)Nc4cccc(F)c4)C[C@@H]23)cc1
IC50: 3.8 µM | z-score: -4.36

Cc1ccccc1-c1ccc([C@H]2[C@H](CO)N3C(=O)CN(S(C)(=O)=O)C[C@@H]23)cc1
IC50: 17.5 µM | z-score: -1.37

COc1ccccc1-c1ccc([C@@H]2[C@@H](C#N)N(C(=O)CN(C)C)[C@H]2CO)cc1
IC50: 5.2 µM | z-score: -12.4

Cc1cccc(-c2ccc([C@@H]3[C@@H](CO)N4CCCCN(S(=O)(=O)c5cccs5)C[C@@H]34)cc2)c1
IC50: 0.8 µM | z-score: -3.77
